Data on three molecules can be found in patent US6740772B1, “Prostaglandin derivatives” (Taisho Pharmaceutical Co., Ltd., priority 1999, dated 2004).

The structures appear in SMILES notation.

The assay deals with EBTr [NBL-4] cells derived from bovine embryonic trachea. Description: cAMP production promoting action in EBTr [NBL-4] cell derived from bovine embryonic trachea. Particulars: for EC50: concentration producing 50% of the cAMP amount obtained with 10 μM PGD2 (=100%), 15 minutes with test compound and 0.5 mM 3-isobutyl-1-methylxanthine; for cAMP production promoting action (in words): conclusion drawn from Table 1. The assay is classed as cell-based. On the procedure: Experiment [Measurement of cAMP production promoting action in EBTr [NBL-4] cell derived from bovine embryonic trachea]
According to the method of Ito et al. in Br. J. Pharmacol., vol. 99, page 13-14 (1990), the following test was carried out.
That is, EBTr [NBL-4] cells derived from bovine embryonic trachea (produced by Dainippon Pharmaceutical Co.) were inoculated on 24-well plates (6×10^4 cells/well) (manufactured by Sumitomo Bakelite Co.), and cultured on a growth medium (MEM Earle's medium including 10% calf serum, 2mM glutamine and non-essential amino acids) for 48 hours, followed by cultivation on 0.5 ml of a growth medium including the test compound and 0.5 mM 3-isobutyl-1-methylxanthine) for 15 minutes. After the completion of the reaction, the cells were washed with a phosphate buffer (not including Ca++ and Mg++), 0.6 ml of 65% aqueous ethanol solution was added, followed by allowing to stand at 4° C. for an hour, and the resulting cAMP was extracted. After evaporation of the solvent by a centrifugal evaporator, the amount of cAMP was measured by using a cAMP EIA System (manufactured by Amersham Co.).
When an amount of cAMP obtained by adding PGD2 in a concentration of 10 μM was regarded as 100%, a concentration required to produce 50% of the amount of cAMP was measured as EC50.
(note) Compounds 19 and 97 are those prepared in the examples as described above. The test compounds were each used as a form of an ethanol solution, and compared with a vehicle-treated group as a control.
Background: Changes in cAMP serve as a functional read-out for many G protein-coupled receptors.

For orientation: EC50 means the midpoint of the concentration-response curve. Low readings indicate an effect from little substance, high ones a need for much substance. Turning to `O=C(O)CCCCSCC1C(Cl)CC(O)C1C#CC(O)C1CCCCC1` (stereo not drawn) [Compound 19, 6-Thia-9-deoxy-9β-chloro-16,17,18,19,20-pentanor-15-cyclohexyl-13,14-didehydro-PGF1α], it took 17.3 nM to reach a half-maximal effect (EC50) and the “cAMP production promoting action (in words)” value is recorded as “strong cAMP production promoting action”.

`O=C(O)COCCSCC1C(Cl)CC(O)C1C#CC(O)C1CCCCC1` (stereo not drawn) [Compound 97, 3-Oxa-6-thia-9β-chloro-13,14-didehydro-16,17,18,19,20-pentanor-15-cyclohexyl-9-deoxy-PGF1α]: the EC50 was 5.13 nM and the “cAMP production promoting action (in words)” value is “strong cAMP production promoting action”.

`CCCCC[C@H](O)/C=C/[C@H]1C(=O)C[C@H](O)[C@@H]1C/C=C\CCCC(=O)O` [PGD2, reference compound] returned an EC50 of 124 nM. This lies in the sub-micromolar range.
